{"source": "paper PMC8868346", "about": "“Novel Series of Dual NRF2 Inducers and Selective MAO-B Inhibitors for the Treatment of Parkinson’s Disease” (Antioxidants, 2022)", "key": {"hrMAO-B": {"molecular_target": "T1, hrMAO-B (Homo sapiens, UniProt P27338)", "T1 construct": "purchased Sigma–Aldrich", "T1 sequence (P27338 1-520)": "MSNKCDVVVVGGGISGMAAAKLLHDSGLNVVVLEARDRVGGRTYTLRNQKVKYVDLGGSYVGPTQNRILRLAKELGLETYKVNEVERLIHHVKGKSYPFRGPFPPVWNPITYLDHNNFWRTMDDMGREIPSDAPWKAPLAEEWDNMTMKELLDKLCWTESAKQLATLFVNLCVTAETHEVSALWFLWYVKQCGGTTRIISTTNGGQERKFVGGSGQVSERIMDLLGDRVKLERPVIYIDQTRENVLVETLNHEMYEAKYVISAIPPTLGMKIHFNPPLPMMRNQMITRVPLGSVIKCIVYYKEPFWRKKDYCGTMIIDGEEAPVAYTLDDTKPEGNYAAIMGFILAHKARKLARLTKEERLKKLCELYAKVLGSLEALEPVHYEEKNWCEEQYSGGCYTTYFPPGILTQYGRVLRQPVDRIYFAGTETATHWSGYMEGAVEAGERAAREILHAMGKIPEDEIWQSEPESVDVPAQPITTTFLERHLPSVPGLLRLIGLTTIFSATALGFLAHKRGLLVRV", "test": "Inhibition of monoamine oxidase B (Amplex UltraRed, tyramine)", "format": "biochemical", "settings": "for Selectivity Index (MAO-A/MAO-B): ratio IC50 MAO-A/IC50 MAO-B"}, "hrMAO-A": {"molecular_target": "T2, hrMAO-A (Homo sapiens, UniProt P21397)", "T2 construct": "purchased Sigma–Aldrich", "T2 sequence (P21397 1-527)": "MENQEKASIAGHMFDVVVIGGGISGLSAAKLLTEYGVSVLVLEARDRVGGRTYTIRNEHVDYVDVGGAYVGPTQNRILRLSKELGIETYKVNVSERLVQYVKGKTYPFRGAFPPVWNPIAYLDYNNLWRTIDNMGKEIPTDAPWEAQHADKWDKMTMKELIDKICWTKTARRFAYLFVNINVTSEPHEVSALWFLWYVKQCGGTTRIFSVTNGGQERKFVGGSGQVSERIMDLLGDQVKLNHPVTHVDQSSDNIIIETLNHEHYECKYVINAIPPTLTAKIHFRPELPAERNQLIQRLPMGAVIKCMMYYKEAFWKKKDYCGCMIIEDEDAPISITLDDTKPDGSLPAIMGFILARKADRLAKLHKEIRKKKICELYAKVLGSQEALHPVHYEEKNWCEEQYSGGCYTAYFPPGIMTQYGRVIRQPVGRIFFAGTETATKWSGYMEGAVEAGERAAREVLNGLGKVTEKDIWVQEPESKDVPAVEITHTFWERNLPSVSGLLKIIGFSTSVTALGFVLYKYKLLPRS", "test": "Inhibition of monoamine oxidase A (Amplex UltraRed, tyramine)", "format": "biochemical"}, "[1]": {"tested_on": "blood-brain barrier (passive diffusion)", "test": "in vitro", "settings": "PAMPA, pH 7.4", "protocol": "(§3) Briefly, permeability of the compounds was measured at an initial concentration of 100 µM, including positive and negative controls (Supplementary Data; Table S3). […] After 5 min, 180 µL of each compound solution in PBS (10 mM, pH 7.4) was added to determine their ability to pass the membrane (VD). The 96-well acceptor plate (Multiscreen, Millipore Corp., Madrid Spain) was loaded with 180 µL of PBS (VA). Then, the donor filter plate was carefully placed on the acceptor plate to form a sandwich-like system, which was left undisturbed for 4 h at room temperature. After incubation, the donor plate was removed and the absorbance at the maximum absorption wavelength for each compound was recorded in both the acceptor and donor wells (150 µL/well) using a UV plate reader SPECTROstar Nano (BMG Labtech, Ortenberg, Germany). Concentration of the compounds in the donor and acceptor plates and equilibrium concentration were calculated and expressed as permeability (Pe) according the Equation (1). Results are expressed as mean ± standard error of the mean (SEM) of at least three different experiments in duplicate:(1) logPe =log{C×−ln(1−[drug]acceptor/[drug]equilibrium)} where C=(VD×VA/(VD +VA)×Area×Time) ."}, "SH-SY5Y": {"tested_on": "SH-SY5Y", "settings": "MTT reduction", "procedure": "They were recovered by centrifugation at 800 rpm for 10 min. Cells from the third to twelfth passage were seeded at a density of 80,000 cells/well in 96-well plates for the neuroprotection studies.\nBasal absorbance was set to 100% and results were normalized to basal conditions.\nCytotoxicity. LD50 values in several cell cultures employed\nTable S2. Cytotoxicity elicited by 10-18 compounds in SH-SY5Y, AREc32 and mixed pr imary glial cultures. Viability was measured as MTT reduction in presence of increasing concentrations of der ivatives. LD50 values were calcula ted from dose-response curves. Data are expr essed as mean ± SEM of at least 3 independent experiments.\n1.3. PAMPA control compounds (BBB permeability)\nTable S3. Pr ediction of the BBB passive permeability of control compounds"}, "MAO-B": {"molecular_target": "T3, MAO-B (Homo sapiens, UniProt P27338)", "T3 construct": "purchased Sigma–Aldrich", "T3 sequence (P27338 1-520)": "T1 sequence (P27338 1-520)", "test": "MAO-B reversibility assay (pre-incubation times)", "format": "biochemical", "settings": "0, 15, 30 min pre-incubation at […] IC50"}, "rat striatal slices [2]": {"tested_on": "rat striatal slices", "test": "Rat striatal slices exposed to 6-OHDA: cell death and ROS production", "format": "cell-based", "settings": "compound 10 µM, 6-OHDA 100 µM, 4 h", "procedure": "(§1) Three- to four-month-old Sprague–Dawley rats were decapitated, the brain was removed, and the two brain hemispheres were separated. Each hemisphere was then cut into 300-µm coronal slices using a McIlwain Tissue Chopper (Cavey Laboratory Engineering, Surrey, UK) and separated in a previously oxygenated (95% O2 and 5% CO2) ice-cold Krebs’s dissection buffer (120 mM of NaCl; 2 mM of KCl; 26 mM of NaHCO3; 1.18 mM of KH2PO4; 10 mM of MgSO4; 0.5 mM of CaCl2; 11 mM of glucose; and 200 mM sucrose at pH 7.4) using a Leica SE6 microscope (Leica, Madrid, Spain). Striatum-containing slices were selected and immediately incubated for stabilization in dissection buffer without sucrose, bubbled with 95% O2 and 5% CO2 for 45 min at 34 °C, allowing slices to recover from slicing injury. […] Finally, cell death and the ROS production were measured.\n(§2) ROS quantification was performed using the fluorescent probe 2,7′-dichlorodihydrofluorescein diacetate (H2DCFDA, λEx/Em = 495/529 nm; Thermo Fisher, Madrid, Spain). Cell death quantification was performed using the fluorescent probe propidium iodide (PI, λEx/Em = 535/617 nm; Thermo Fisher, Madrid, Spain). […] Fluorescence from striatum slices was then recorded for H2DCFDA (λEx/Em = 495/529 nm), PI (λEx/Em = 535/617 nm), and Hoechst (λEx/Em = 350/461 nm), in an inverted Nikon Eclipse T2000-U microscope (Nikon, Tokyo, Japan). […]"}, "rat striatal slices [3]": {"tested_on": "rat striatal slices", "test": "Rat striatal slices exposed to rotenone: ROS production", "format": "cell-based", "settings": "compound 10 µM, rotenone 10 µM, 4 h", "procedure": "as §1, §2"}, "[4]": {"tested_on": "blood-brain barrier (passive diffusion)", "test": "Blood–brain barrier permeation assay (PAMPA)", "settings": "PAMPA, pH 7.4", "protocol": "as §3"}, "[5]": {"settings": "30 min pre-incubation, 37 °C, read-out: IC50 MAO-B"}, "[6]": {"settings": "30 min pre-incubation, 37 °C, read-out: IC50 MAO-A"}}, "note": "Read-outs that look alike come from different tables or passages of the source."}
{"compound": "C#CCNCCc1c[nH]c2ccc(OC)cc12", "note": "[Compound 10, N-(2-(5-Methoxy-1H-indol-3-yl)ethyl)prop-2-yn-1-amine]", "values": [{"measurement": "IC50", "setting": "hrMAO-B", "value": "77.6 ± 9.1", "unit": "µM"}, {"measurement": "MAO isozyme selectivity", "setting": "hrMAO-B; MAO-B vs MAO-A", "value": "MAO-A selectivity"}, {"measurement": "Selectivity Index (MAO-A/MAO-B)", "setting": "hrMAO-B", "value": 0.0106}, {"measurement": "IC50", "setting": "hrMAO-A", "value": "0.826 ± 0.11", "unit": "µM"}, {"measurement": "Papp", "setting": "[1]", "value": "12.3 ± 0.62", "unit": "×10⁻⁶ cm/s"}]}
{"compound": "C#CCN(CC#C)CCc1c[nH]c2ccc(OC)cc12", "note": "[Compound 13, N-(2-(5-Methoxy-1H-indol-3-yl)ethyl)-N-(prop-2-yn-1-yl)prop-2-yn-1-amine]", "values": [{"measurement": "IC50", "setting": "hrMAO-B", "value": "89.1 ± 4.3", "unit": "µM"}, {"measurement": "Selectivity Index (MAO-A/MAO-B)", "setting": "hrMAO-B", "value": ">1.12"}, {"measurement": "IC50", "setting": "hrMAO-A", "value": "> 100", "unit": "µM"}, {"measurement": "Papp", "setting": "[1]", "value": "20.3 ± 7.5", "unit": "×10⁻⁶ cm/s"}]}
{"compound": "C#CCN(CC#C)CCc1c[nH]c2ccc(OC(=O)C=Cc3ccccc3)cc12", "note": "[Compound 14, 3-(2-(Di(prop-2-yn-1-yl)amino)ethyl)-1H-indol-5-yl Cinnamate]", "values": [{"measurement": "IC50", "setting": "hrMAO-B; [5]", "value": "17 ± 1.6", "unit": "µM"}, {"measurement": "IC50", "setting": "hrMAO-A; [6]", "value": "56.6 ± 6.3", "unit": "µM"}, {"measurement": "LD50 (µM) SH-SY5Y", "setting": "SH-SY5Y", "value": "66.5 ± 9.8", "unit": "µM"}, {"measurement": "MAO-B inhibition reversibility", "setting": "MAO-B", "value": "reversible inhibition"}, {"measurement": "ROS production (H2DCFDA), 6-OHDA model", "setting": "rat striatal slices [2]", "value": "significantly decreased ROS production"}, {"measurement": "cell death (propidium iodide), 6-OHDA model", "setting": "rat striatal slices [2]", "value": "significant reduction in cell death"}, {"measurement": "ROS levels (H2DCFDA), rotenone model", "setting": "rat striatal slices [3]", "value": "reduced"}, {"measurement": "Papp at 4 h, 100 µM", "setting": "[4]", "value": "4.15 ± 1.8", "unit": "×10⁻⁶ cm/s"}]}
{"compound": "C#CCN(CC#C)CCc1c[nH]c2ccc(OC(=O)/C=C/c3ccc(C)cc3)cc12", "note": "[Compound 15, 3-(2-(Di(prop-2-yn-1-yl)amino)ethyl)-1H-indol-5-yl-(E)-3-(p-tolyl) Acrylate]", "values": [{"measurement": "IC50", "setting": "hrMAO-B; [5]", "value": "28.1 ± 0.6", "unit": "µM"}, {"measurement": "IC50", "setting": "hrMAO-A; [6]", "value": "> 100", "unit": "µM"}, {"measurement": "LD50 (µM) SH-SY5Y", "setting": "SH-SY5Y", "value": "48.3 ± 6.6", "unit": "µM"}, {"measurement": "Papp at 4 h, 100 µM", "setting": "[4]", "value": "4.46 ± 1.9", "unit": "×10⁻⁶ cm/s"}]}
